According to patent publication US12570659B2, “Bicyclic heteroaryl compounds useful as IRAK4 inhibitors” (BRISTOL-MYERS SQUIBB COMPANY, priority 2019, dated 2026):

Legend:
[1] = molecular target: IRAK4 (Homo sapiens (Human), UniProt Q9NWZ3); assay: IRAK4 Inhibition Assay; format: biochemical; conditions: ATP 500 μM; IRAK4 0.6 nM; 60 min room temperature
Procedure: IRAK4 Inhibition Assay The assays were performed in U-bottom 384-well plates. […] The reaction was initiated by the combination of IRAK4 with substrates and test compounds. The reaction mixture was incubated at room temperature for 60 min. and terminated by adding 45 μL of 35 mM EDTA to each sample. The reaction mixture was analyzed on the Caliper LABCHIP® 3000 (Caliper, Hopkinton, MA) by electrophoretic separation of the fluorescent substrate and phosphorylated product. Inhibition data were calculated by comparison to no enzyme control reactions for 100% inhibition and vehicle-only reactions for 0% inhibition.

[2] = molecular target: JAK3 kinase (Homo sapiens (Human), UniProt P52333); assay: JAK3 Homogeneous Time Resolved Fluorescence (HTRF) Assay; format: binding; conditions: for IC50: competition binding with fluorescein-labeled ATP competitive probe; for Ratio of JAK3 IC50 to IRAK4 IC50: selectivity for IRAK4 over JAK3
Procedure: JAK3 Homogeneous Time Resolved Fluorescence (HTRF) Assay
A time resolved FRET-based competition binding assay was used to assess test article binding to JAK3 kinase. His-tagged or GST-tagged kinase at a concentration of 1 nM was incubated with 0.2 nM Tb-labeled detection antibody (anti-His or anti-GST), test compound, and fluorescein-labeled ATP competitive probe at a concentration corresponding to the probe's equilibrium dissociation constant for one hour. Fluorescence at 495 nm and 520 nm was measured using an EnVision microplate reader to quantify FRET between Tb-labeled detection antibody and fluorescein-labeled probe. Background subtracted FRET ratios were normalized to the maximum signal obtained in the absence of test compound. These values were converted to a percent inhibition. Percent inhibition was determined for test compounds at 11 concentrations. The IC50, defined as the concentration of the competing test compound needed to reduce specific binding of the probe by 50%, was calculated using the 4 parameter logistic equation to fit the data.

Sequence of JAK3 kinase (P52333 whole entry): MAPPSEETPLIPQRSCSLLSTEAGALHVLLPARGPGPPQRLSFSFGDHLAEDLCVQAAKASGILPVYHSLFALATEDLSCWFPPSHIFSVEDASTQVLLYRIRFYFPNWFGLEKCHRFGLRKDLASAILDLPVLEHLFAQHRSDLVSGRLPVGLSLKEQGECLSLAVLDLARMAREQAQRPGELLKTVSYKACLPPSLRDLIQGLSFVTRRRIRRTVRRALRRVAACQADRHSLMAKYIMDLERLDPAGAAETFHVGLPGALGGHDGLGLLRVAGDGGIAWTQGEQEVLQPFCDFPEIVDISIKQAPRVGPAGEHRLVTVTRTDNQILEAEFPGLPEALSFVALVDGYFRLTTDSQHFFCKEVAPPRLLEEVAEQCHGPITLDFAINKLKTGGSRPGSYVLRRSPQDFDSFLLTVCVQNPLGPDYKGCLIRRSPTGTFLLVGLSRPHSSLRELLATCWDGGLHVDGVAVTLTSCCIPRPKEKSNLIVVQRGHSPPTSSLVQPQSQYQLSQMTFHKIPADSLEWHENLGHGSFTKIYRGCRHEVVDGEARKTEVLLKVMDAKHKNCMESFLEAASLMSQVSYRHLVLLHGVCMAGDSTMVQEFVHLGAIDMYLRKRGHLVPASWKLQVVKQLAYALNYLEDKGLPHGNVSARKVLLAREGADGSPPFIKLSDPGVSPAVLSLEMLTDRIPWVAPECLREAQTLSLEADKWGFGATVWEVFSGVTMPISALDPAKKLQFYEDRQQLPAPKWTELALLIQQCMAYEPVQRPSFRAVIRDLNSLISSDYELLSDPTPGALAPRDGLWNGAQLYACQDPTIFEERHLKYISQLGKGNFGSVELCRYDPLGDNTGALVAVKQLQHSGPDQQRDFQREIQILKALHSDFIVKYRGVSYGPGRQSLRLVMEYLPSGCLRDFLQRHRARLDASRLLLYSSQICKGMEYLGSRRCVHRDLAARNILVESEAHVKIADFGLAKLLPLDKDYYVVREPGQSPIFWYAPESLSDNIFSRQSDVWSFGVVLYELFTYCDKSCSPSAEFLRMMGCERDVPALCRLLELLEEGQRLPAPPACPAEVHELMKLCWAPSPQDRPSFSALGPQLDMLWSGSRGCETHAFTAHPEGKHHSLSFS
Sequence of IRAK4 (Q9NWZ3 whole entry, species assumed): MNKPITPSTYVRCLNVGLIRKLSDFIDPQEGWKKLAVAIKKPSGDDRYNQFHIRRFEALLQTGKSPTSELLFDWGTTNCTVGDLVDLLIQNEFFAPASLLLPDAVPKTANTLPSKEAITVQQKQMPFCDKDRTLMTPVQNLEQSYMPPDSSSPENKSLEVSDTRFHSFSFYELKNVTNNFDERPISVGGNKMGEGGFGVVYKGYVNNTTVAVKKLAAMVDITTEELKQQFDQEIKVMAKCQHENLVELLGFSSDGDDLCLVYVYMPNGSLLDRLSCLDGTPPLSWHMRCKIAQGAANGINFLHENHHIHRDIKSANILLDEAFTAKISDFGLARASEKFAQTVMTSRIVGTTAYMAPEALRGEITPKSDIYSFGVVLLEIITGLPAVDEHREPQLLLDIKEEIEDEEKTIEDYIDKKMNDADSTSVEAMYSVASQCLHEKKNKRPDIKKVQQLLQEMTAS

| Compound | IC50 [1] | IC50 [2] | Ratio of JAK3 IC50 to IRAK4 IC50 [2] |
| --- | --- | --- | --- |
| CC(C)Nc1c(C(=O)NC[C@@H](F)C(C)(C)O)cnn2cc(-c3cncnc3)cc12 [Example 4, (R)—N-(2-fluoro-3-hydroxy-3-methylbutyl)-4-(isopropylamino)-6-(pyrimidin-5-yl)pyrrolo[1,2-b]pyridazine-3-carboxamide] | 19 nM | > 50000 nM | >2632 |
| CC(C)(O)[C@H](F)CNC(=O)c1cnn2cc(-c3cccnc3)cc2c1NC1CCOCC1 [Example 6, (R)—N-(2-fluoro-3-hydroxy-3-methylbutyl)-6-(pyridin-3-yl)-4-((tetrahydro-2H-pyran-4-yl)amino) pyrrolo[1,2-b] pyridazine-3-carboxamide] | 54 nM | > 50000 nM | >926 |
| CC(C)Nc1c(C(=O)NC[C@@H](F)C(C)(C)O)cnn2cc(-c3cccnc3F)cc12 [Example 7, (R)—N-(2-fluoro-3-hydroxy-3-methylbutyl)-6-(2-fluoropyridin-3-yl)-4-(isopropylamino)pyrrolo[1,2-b]pyridazine-3-carboxamide] | 6.4 nM | > 10000 nM | >1563 |
| CC(C)(O)[C@H](F)CNC(=O)c1cnn2cc(-c3cccnc3F)cc2c1NC1CCOCC1 [Example 8, (R)—N-(2-fluoro-3-hydroxy-3-methylbutyl)-6-(2-fluoropyridin-3-yl)-4-((tetrahydro-2H-pyran-4-yl)amino)pyrrolo[1,2-b]pyridazine-3-carboxamide] | 25 nM | > 50000 nM | >2000 |
| CC(C)(O)[C@H](F)CNC(=O)c1cnn2cc(-c3ccncc3)cc2c1NC1CCOCC1 [Example 9, (R)—N-(2-fluoro-3-hydroxy-3-methylbutyl)-6-(pyridin-4-yl)-4-((tetrahydro-2H-pyran-4-yl)amino) pyrrolo[1,2-b] pyridazine-3-carboxamide] | 17 nM | > 50000 nM | >2941 |
| COc1ccc(-c2cc3c(NC4CCOCC4)c(C(=O)NC[C@@H](F)C(C)(C)O)cnn3c2)cn1 [Example 10, (R)—N-(2-fluoro-3-hydroxy-3-methylbutyl)-6-(6-methoxypyridin-3-yl)-4-((tetrahydro-2H-pyran-4-yl)amino)pyrrolo[1,2-b]pyridazine-3-carboxamide] | 57 nM | > 10000 nM | >175 |
| COc1cc(-c2cc3c(NC4CCOCC4)c(C(=O)NC[C@@H](F)C(C)(C)O)cnn3c2)ccn1 [Example 11, (R)—N-(2-fluoro-3-hydroxy-3-methylbutyl)-6-(2-methoxypyridin-4-yl)-4-((tetrahydro-2H-pyran-4-yl)amino)pyrrolo[1,2-b]pyridazine-3-carboxamide] | 86 nM | > 50000 nM | >581 |
| CC(C)(O)[C@H](F)CNC(=O)c1cnn2cc(-c3ccc(C#N)c(F)c3)cc2c1NC1CCOCC1 [Example 12, (R)-6-(4-cyano-3-fluorophenyl)-N-(2-fluoro-3-hydroxy-3-methylbutyl)-4-((tetrahydro-2H-pyran-4-yl)amino)pyrrolo[1,2-b]pyridazine-3-carboxamide] | 250 nM | > 50000 nM | >200 |
| CC(C)Nc1c(C(=O)NC[C@@H](F)C(C)(C)O)cnn2cc(-c3ccc(F)cc3)cc12 [Example 13, (R)—N-(2-fluoro-3-hydroxy-3-methylbutyl)-6-(4-fluorophenyl)-4-(isopropylamino)pyrrolo[1,2-b]pyridazine-3-carboxamide] | 29 nM | > 50000 nM | >1724 |
| CC(C)Nc1c(C(=O)NC[C@@H](F)C(C)(C)O)cnn2cc(-c3cccc(CN4CCOCC4)c3)cc12 [Example 14, (R)—N-(2-fluoro-3-hydroxy-3-methylbutyl)-4-(isopropylamino)-6-(3-(morpholinomethyl)phenyl) pyrrolo[1,2-b]pyridazine-3-carboxamide] | 1670 nM | > 10000 nM | >6 |
| CC(C)Nc1c(C(=O)NC[C@@H](F)C(C)(C)O)cnn2cc(-c3cnc(N)nc3)cc12 [Example 15, (R)-6-(2-aminopyrimidin-5-yl)-N-(2-fluoro-3-hydroxy-3-methylbutyl)-4-(isopropylamino) pyrrolo[1,2-b]pyridazine-3-carboxamide] | 22 nM | > 50000 nM | >2273 |
| CC(C)Nc1c(C(=O)NC[C@@H](F)C(C)(C)O)cnn2cc(-c3ccccn3)cc12 [Example 16, (R)—N-(2-fluoro-3-hydroxy-3-methylbutyl)-4-(isopropylamino)-6-(pyridin-2-yl)pyrrolo[1,2-b]pyridazine-3-carboxamide] | 17 nM | > 50000 nM | >2941 |
| CC(C)Nc1c(C(=O)NC[C@@H](F)C(C)(C)O)cnn2cc(-c3nccs3)cc12 [Example 17, (R)—N-(2-fluoro-3-hydroxy-3-methylbutyl)-4-(isopropylamino)-6-(thiazol-2-yl)pyrrolo[1,2-b]pyridazine-3-carboxamide] | 6.3 nM | – | – |
| CC(C)Nc1c(C(=O)NC[C@@H](F)C(C)(C)O)cnn2cc(-c3ccc(F)cn3)cc12 [Example 18, (R)—N-(2-fluoro-3-hydroxy-3-methylbutyl)-6-(5-fluoropyridin-2-yl)-4-(isopropylamino)pyrrolo[1,2-b]pyridazine-3-carboxamide] | 12 nM | > 50000 nM | >4167 |
| CC(C)(O)[C@H](F)CNC(=O)c1cnn2cc(-c3nccs3)cc2c1NC1CCOCC1 [Example 19, (R)—N-(2-fluoro-3-hydroxy-3-methylbutyl)-4-((tetrahydro-2H-pyran-4-yl)amino)-6-(thiazol-2-yl) pyrrolo[1,2-b]pyridazine-3-carboxamide] | 15 nM | > 10000 nM | >667 |
| CC(C)(O)[C@H](F)CNC(=O)c1cnn2cc(-c3ccc(C#N)cn3)cc2c1NC1CCOCC1 [Example 20, (R)-6-(5-cyanopyridin-2-yl)-N-(2-fluoro-3-hydroxy-3-methylbutyl)-4-((tetrahydro-2H-pyran-4-yl)amino)pyrrolo[1,2-b] pyridazine-3-carboxamide] | 150 nM | > 50000 nM | >333 |
| CC(C)(O)[C@H](F)CNC(=O)c1cnn2cc(-c3ccccc3)cc2c1NC1CCCC1 [Example 29, (R)-4-(cyclopentylamino)-N-(2-fluoro-3-hydroxy-3-methylbutyl)-6-phenylpyrrolo[1,2-b] pyridazine-3-carboxamide] | 180 nM | – | – |
| CNC(=O)[C@H]1CC[C@H](NC(=O)c2cnn3cc(-c4ccc(C#N)nc4)cc3c2NC(C)C)CC1 [Example 94, 6-(6-cyanopyridin-3-yl)-4-(isopropylamino)-N-((1r,4r)-4-(methylcarbamoyl)cyclohexyl) pyrrolo[1,2-b]pyridazine-3-carboxamide] | 14 nM | – | – |
| CNC(=O)[C@H]1CC[C@H](NC(=O)c2cnn3cc(-c4ccc(C(N)=O)nc4)cc3c2NC(C)C)CC1 [Example 95, 6-(6-carbamoylpyridin-3-yl)-4-(isopropylamino)-N-((1r,4r)-4-(methylcarbamoyl)cyclohexyl)pyrrolo[1,2-b]pyridazine-3-carboxamide] | 35 nM | – | – |
| CNC(=O)c1cnc2cc(-c3ccccc3)nn2c1N[C@H](CO)Cc1ccccc1 [Example 116, (S)-7-((1-hydroxy-3-phenylpropan-2-yl)amino)-N-methyl-2-phenylpyrazolo[1,5-a]pyrimidine-6-carboxamide] | 1620 nM | – | – |
| CNC(=O)c1cnc2cc(-c3ccccc3)nn2c1NC1CCCCC1 [Example 117, 7-(cyclohexylamino)-N-methyl-2-phenylpyrazolo[1,5-a]pyrimidine-6-carboxamide] | 5570 nM | – | – |
| CNC(=O)c1cnc2cc(-c3ccc(C#N)cc3)nn2c1NC(C)C [Example 118, 2-(4-cyanophenyl)-7-(isopropylamino)-N-methylpyrazolo[1,5-a] pyrimidine-6-carboxamide] | 240 nM | – | – |
| CNC(=O)c1cnc2cc(-c3ccnc(N4CCOCC4)c3)nn2c1NC(C)C [Example 119, 7-(isopropylamino)-N-methyl-2-(2-morpholinopyridin-4-yl)pyrazolo[1,5-a]pyrimidine-6-carboxamide] | 2930 nM | – | – |
| CNC(=O)c1cnc2cc(-c3ccncc3)nn2c1NC(C)C [Example 120, 7-(isopropylamino)-N-methyl-2-(pyridin-4-yl)pyrazolo[1,5-a]pyrimidine-6-carboxamide] | 410 nM | – | – |
| CNC(=O)c1cnc2cc(-c3ccc4ncsc4c3)nn2c1NC(C)C [Example 121, 2-(benzo[d]thiazol-6-yl)-7-(isopropylamino)-N-methylpyrazolo[1,5-a]pyrimidine-6-carboxamide] | 590 nM | – | – |
| CC(C)Nc1c(C(=O)NC[C@@H](F)C(C)(C)O)cnc2cc(-c3nccs3)nn12 [Example 158, (R)—N-(2-fluoro-3-hydroxy-3-methylbutyl)-7-(isopropylamino)-2-(thiazol-2-yl)pyrazolo[1,5-a]pyrimidine-6-carboxamide] | 20 nM | – | – |
